# Assay results published in patent publication US4923865A, “Substituted 1-(1H-imidazol-4-yl)alkyl-benzamides as anti-ischemics and as alpha-2-adrenergic receptor agonists” (U C B Societe Anonyme, priority 1988, dated 1990).
# What was measured:
# myocardial ischemia = assay: Artificially induced acute coronary insufficiency in an awake dog (ST-segment elevation); assay type: in vivo; settings: Canis lupus familiaris, 0.1 h, intravenous, 6 min coronary occlusion, groups of ten animals, read-out: DE20 (dose producing a mean reduction of at least 20% of the ST-segment elevation)
# Description: Because of the reduction in the oxygen supply which results from this, the occlusion produces myocardial ischemia which is expressed on the electrocardiogram by a reproducible and quantifiable ST-segment elevation. The anti-ischemic action of a compound results in a reduction of the magnitude of the ST-segment elevation. (P. R. MAROKO and E. BRAUNWALD, Circulation, 53, (1976, Suppl. I), 162-168; S. E. EPSTEIN et al., Circulation, 53, (1976, Suppl. I), 191-197).
# cerebral ischemia = assay: Unilateral, multifocal cerebral ischemia in the rat (microsphere embolization); assay type: in vivo, male Sprague-Dawley SPF rats
# Description: (b) Unilateral, multifocal cerebral ischemia in the rat. In awake, male Sprague-Dawley SPF rats, aged from 8 to 9 months, a permanent, unilateral cerebral ischemia (or embolization) is caused by introduction of 2000 microspheres (provided by 3M, St. Paul, U.S.A.; diameter 58±2 μm) into the right carotid stream (A. M. BRALET et al., Stroke, 10, (1979), 34-38; M. LE PONCIN-LAFITTE et al., Pathol. Biol. (Paris), 30, (1982), 289-293) after the permanent ligature of the right pterygopalatine artery (Y. KIYOTA et al., Pharmacol. Biochem. Behav. 24, (1986), 687-692).
# The compound to be studied is administered for the first time 30 minutes before, and for the second time 30 minutes after embolization, while the control animals receive only a physiological salt solution. The animals are then allowed to rest. After 6 days of recovery, the surviving animals are measured for:
# (1) the residual neurological deficit obtained from the test of posture and gait of the animals (Test A, maximum score: 4 points). This test evaluates:
# (a) abnormal positioning of the hind paws (S. IRWIN, Psychophamacologia (Berlin), 13, (1968), 222-257);
# (b) contralateral inclination of the body during locomotion;
# (c) homolateral longitudinal flexion of the body, and
# (d) abnormal gait (B. KOLB et al., loc. cit.).
# (2) The sensorimotor functions (spontaneous motility, grasping reflex, placing reactions both visual and by loss of support (Test B, maximum score: 10 points); (C. CAPDEVILLE et al., loc. cit.).
# (3) The lateralized sensorimotor response (on the contralateral side) (Test C, maximum score: 3 points). This is evaluated by combining the measurements of visual placing reflex, head orientation relfex towards a lateral sensory stimulus, and the cutaneous plantar reflex (C. CAPDEVILLE et al., loc. cit.; J. F. MARSHALL et al., Science (Washington), 174, (1971), 523-525).
# (4) Tactile extinction on the left side (Test D, maximum score: 300 points). By contrast with the other tests mentioned above, for which the deficit is lower when the score is higher, the deficit is here more pronounced when the score approaches 300 (T. SCHALLERT et al., Pharmacol. Biochem. Behav. 16, (1982), 455-462).
# On the seventh day of recovery, the edema present in various ipsilateral cerebral structures is also measured (M. LE PONCIN-LAFITTE et al., loc. cit.).
# Table IV gives the results obtained in tests A to D for compound A, administered intraperitoneally at the dose of 0.76 μg/kg (3.2 nmoles/kg), i.e. The mean of the neurological scores determined for the whole group of surviving animals of the control group and of the treated group after 6 days of recovery. Also indicated in the Table is the mean variation (in g) of body weight measured on the 7th day of recovery. The statistical significant (P) of the difference between the mean values calculated for the control animals and for the treated animals is evaluated by the Mann-Whitney test.
# In Table V, the quantity of water (as an average of the percentage) retained in various ipsilateral cerebral structures in the control animals and in the treated animals surviving at the 7th day after embolization, is indicated.
# α2 -adrenergic receptors = molecular target: T1, α2 -adrenergic receptors (Rattus norvegicus, UniProt P22909); assay: Competitive binding assay with [^3 H]clonidine on rat brain membranes; settings: 30 minutes incubation, read-out: IC50 (50% inhibition of the binding of [^3 H]clonidine)
# T1 construct: three different preparations of rat brain membranes; from tissue; host or cells: rat brain membranes
# T1 sequence (P22909 1-465): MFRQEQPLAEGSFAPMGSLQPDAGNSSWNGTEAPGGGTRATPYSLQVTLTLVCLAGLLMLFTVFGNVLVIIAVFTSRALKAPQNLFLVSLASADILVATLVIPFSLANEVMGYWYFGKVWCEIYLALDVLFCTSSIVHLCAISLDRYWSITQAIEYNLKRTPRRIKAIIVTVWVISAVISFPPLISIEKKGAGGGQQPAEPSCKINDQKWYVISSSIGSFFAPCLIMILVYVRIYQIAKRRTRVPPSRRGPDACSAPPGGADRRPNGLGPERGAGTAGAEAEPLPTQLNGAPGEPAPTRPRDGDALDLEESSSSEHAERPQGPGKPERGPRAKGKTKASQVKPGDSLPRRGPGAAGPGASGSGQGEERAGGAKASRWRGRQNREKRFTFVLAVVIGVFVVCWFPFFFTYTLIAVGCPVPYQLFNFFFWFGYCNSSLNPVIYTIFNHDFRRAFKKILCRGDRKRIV
# Description: (a) Competitive binding assay with a radioligand. The object of competitive binding assays is to measure the affinity of the compounds of the invention for α2 -adrenoceptors. These conventional experiments involve the competition for binding to α2 -adrenergic receptors between the tested compound on the one hand, and on the other hand, a radioligand which, in this particular case of α2 -adrenergic receptors, is the [^3 H]clonidine which is known to be a specific α2 -adrenergic agonist.
# The method used is that of D. C. U'PRICHARD et al., Mol. Pharmacol. 13, (1977), 454-473.
# The displacement curves for binding of [^3 H]clonidine have been determined with nine concentrations of compound A, ranging from 10^-4 to 10^-10 mole/l, and with three different preparations of rat brain membranes. The samples were incubated for 30 minutes, and then filtered under reduced pressure using a Whatman GF/B filter. The filters are washed three times with 5 ml of Tris-HCl buffer (pH 7.5 at 0° C.) and then dried for one minute. The radioactivity is measured in an Econofluor (-NEN Corp.) medium. The [^3 H]clonidine (25.5 Ci/mmole) used is provided by Amersham.
# The affinity of compound A for the α2 -adrenergic receptors has been calculated from the displacement curves of the [^3 H]clonidine. […]
compound,measurement,setting,value
"Cl.NC(=O)c1cccc(Cc2c[nH]cn2)c1O [A, 2-hydroxyl-3-[(1H-imidazol-4-yl)methyl]-benzamide hydrochloride]",ED20,myocardial ischemia,0.03 µmol/kg
same,weight variation,"cerebral ischemia; 0.76 μg/kg i.p., 7th day of recovery, control -5.7, P <0.05",+0.8 g
same,"Mean neurological score 6 days after embolization, test C","cerebral ischemia; 0.76 μg/kg i.p., lateralized sensorimotor response, maximum 3 points, control 1.0, P <0.005",2.0
same,"Mean neurological score 6 days after embolization, test A","cerebral ischemia; 0.76 μg/kg i.p., posture and gait, maximum 4 points, control 1.0, P <0.01",2.0
same,"Mean neurological score 6 days after embolization, test B","cerebral ischemia; 0.76 μg/kg i.p., sensorimotor functions, maximum 10 points, control 7.3, P <0.05",8.0
same,"Mean neurological score 6 days after embolization, test D","cerebral ischemia; 0.76 μg/kg i.p., tactile extinction, maximum 300 points, higher = greater deficit, control 243, P <0.05",96
same,Quantity of water in ipsilateral diencephalon,"cerebral ischemia; 7th day after embolization, control 77.04, P < 0.05",76.32 average %
same,Quantity of water in ipsilateral hippocampus,"cerebral ischemia; 7th day after embolization, control 80.20, P < 0.05",79.79 average %
same,Quantity of water in ipsilateral cortex,"cerebral ischemia; 7th day after embolization, control 81.33, P < 0.01",80.36 average %
same,Quantity of water in ipsilateral corpus striatum,"cerebral ischemia; 7th day after embolization, control 81.57, P < 0.005",80.05 average %
same,IC50,α2 -adrenergic receptors,8.9 nM
